Assay results: patent US10166271B2, “Methods for promoting hair growth” (THE REGENTS OF THE UNIVERSITY OF CALIFORNIA, priority 2006, dated 2019)

Assays:
young CRF-OE mice = details: young CRF-OE mice; over a two-month period
Procedure: Each subcutaneous injection is given in a single puncture located along or about the midline of the back. Age-matched CRF-OE mice similarly injected with 0.1 ml vehicle alone are used as negative controls. Astressin B fragments are as described in Example 8. Alternatively, topical astressin B can be applied to the mouse's back, for example 0.05 mg, 0.5 mg, 5 mg, 50 mg, or 500 mg of an astressin B fragment once daily for at least five consecutive days
Hair growth (or hair loss) is assessed using the hair growth scale described in Example 1. The general conditions of treated and control mice, such as weight, back skin thickness, hair luster, skin wounds and indurations, are noted.

CRF-OE mice = type: in vivo; details: for Treated mice that died / did not survive / Hair growth: adult female CRF-OE mice; for Treated mice that died / did not survive: groups of five, minoxidil: a few days after the first injection, NBI 27914: within four weeks following the final injection; for Hair growth: 2 and 4 weeks (minoxidil) or four weeks (NBI 27914, surviving mouse) after the final injection
From the text: The NBI 27914 administration regimen was as previously described by Martinez et al. (J. Pharmacol. Exp. Ther., 301:611-617, 2002).

[1] = system: male patients between 18 and 41 years of age; post-menopausal women; details: cited from earlier work
[2] = system: male and female androgenetic patients; details: cited from earlier work
[3] = oral 1 mg/day for 2 years, male patients 18-41 years

CCCN(CC1CC1)c1nc(C)nc(Nc2c(Cl)cc(Cl)cc2Cl)c1Cl [NBI 27914]
Loss of hair compared with astressin B-treated mice (young CRF-OE mice): substantially more loss of hair
Treated mice that died / did not survive (CRF-OE mice): 4 out of 5
Hair growth (CRF-OE mice): small areas of patchy hair growth

CC(C)(C)NC(=O)[C@H]1CC[C@H]2[C@@H]3CC[C@H]4NC(=O)C=C[C@]4(C)[C@H]3CC[C@]12C [finasteride]
Side effects ([1]; human, in vivo): lack of libido, lack of potency, and mild reduction in semen
Cases in which further hair loss was prevented [1, 3]: 83%
Cases with visible hair growth [1, 3]: 66%
Efficacy of similar treatment regimen ([1]; post-menopausal women): ineffective

Nc1cc(N2CCCCC2)nc(N)[n+]1[O-] [minoxidil]
Loss of hair compared with astressin B-treated mice (young CRF-OE mice): substantially more loss of hair
Treated mice that died / did not survive (CRF-OE mice): one treated mouse died
Hair growth (CRF-OE mice): Moderate hair growth in the pigmented patches
Treated mice with induced patches of pigmentation (CRF-OE mice; sc 1% in 0.1 ml once per day x 10 days, by two weeks after the final injection, still-living mice): 3 of the 4
Side effects ([2]; human, in vivo): scalp irritation and increased facial hair
Patients with fine hair growth (fraction) ([2]; two percent topical): approximately ⅓
Patients with no hair growth (fraction) ([2]; two percent topical): approximately ⅓
Patients with visible hair growth (fraction) ([2]; two percent topical): approximately ⅓
